pIC50: −log10 of the molar value.
Test system: 138582-337-R-J1-PDC spheroids with HUVEC/MSC, viability
Assay: Anticancer human tumor 138582-337-R-J1-PDC patient-derived Merkel cell tumor cell line growth inhibition [IpAb]
Conditions: for pIC50: curve of first compound; for viability, T/C: stronger effect = lower value
Source text: Combinatorial screen of targeted agents with ipatasertib and abemaciclib in multi-cell type tumor spheroids
A high-throughput screen of multi-cell type tumor spheroids was designed to identify active combinations of targeted small molecules and ipatasertib or abemaciclib. Complex spheroids include a stromal component modeled by human endothelial cells (HUVEC) and fibroblasts modeled by human mesenchymal stem cells (MSCs). The concentration ranges selected for each drug and investigational agent were based upon clinically achievable concentrations if the clinical Cmax of the agent was known.
Compounds. The drugs and investigational agents: ipatasertib (NSC767898), abemaciclib(NSC768073), selumetinib (NSC741078), trametinib (758246), adavosertib (NSC754352), everolimus (NSC733504), sapanisertib (NSC764658), vemurafenib (NSC761431), venetoclax (NSC766270), copanlisib (NSC809693), apelisib (NSC765974), palbociblib (NSC758247), vemurafenib (NSC761431), dabrafenib (NSC764134), ravoxertinib (NSC781343), BMS-387032 (NSC767048), sotorasib (NSC818433), talazoparib (NSC767125) and afursertib (NSC778305), were obtained from the National Cancer Institute (NCI) Developmental Therapeutics Program Chemical Repository. The FDA-approved anticancer drug set is available from the NCI Developmental Therapeutics Program. […] The stock solutions were prepared in dimethyl sulfoxide (DMSO, Sigma-Aldrich, St. Louis, MO, cat. D2650) at 800-fold the tested concentration and stored at -70 degrees C prior to their use. All drugs and investigational agents were tested over a range starting from a high concentration at or near the clinical Cmax and decreasing in half-log increments. If the clinical Cmax for an agent had not been determined, the highest concentration tested was 10 microM.
NCI60 Cell Culture. NCI60 cell lines were obtained from the NCI Developmental Therapeutics Program Tumor Repository. For each lot of cells, the Repository performed Applied Biosystems AmpFLSTR Identifiler testing with PCR amplification to confirm consistency with the published Identifier STR profile for each cell line. Cells were kept in continuous culture for no more than 20 passages. The optimal seeding densities for each of the cell lines at each time point assessed were determined prior to performing the concentration response studies. Briefly, the NCI60 human tumor lines were grown as monolayers in RPMI 1640 medium supplemented with 10% FBS and 2 mmol/L L-glutamine.
An additional 9 lines were from the NCI60 cell line panel including MDA-MB-231 breast carcinoma, MDA-MB-468 breast carcinoma, MCF7 breast carcinoma, Hs578T breast carcinoma, MALME-3M melanoma, SK-MEL-2 melanoma, SK-OV-3 ovarian carcinoma, DU-145 prostate carcinoma, PC-3 prostate carcinoma, all cell lines along with major genetic alterations are listed on Table 2. Pooled donor human umbilical vein endothelial cells (HUVEC, Lonza, cat. CC-2519) and human mesenchymal stem cells (hMSC, Lonza, cat. PT-2501) were purchased from Lonza (Walkersville, MD).
PDMR cell lines were grown in complete medium (DC medium): Dulbecco's modified Eagle's medium (DMEM)/F12 supplemented with 5% fetal bovine serum (FBS), 2 mM L-glutamine, 100 U/mL penicillin and 100 µg/ml streptomycin, 0.4 µg/ml hydrocortisone, 10 ng/ml epidermal growth factor (EGF) recombinant human protein, 24 µg/mL adenine, and 0.1 mg/mL primocin. During culture from frozen stock vials, PDMR cells were cultured in the same medium containing 10 µM Y-27632 (see Table 3). The PDCs were cultured in complete DMEM/F12 media without 10 microM Y-27632 dihydrochloride for at least two passages prior to the screen. The pooled donor HUVEC and hMSC were cultured in endothelial cell growth medium 2 (PromoCell, Heidelberg, Germany, cat. C-22011) and mesenchymal stem cell growth medium 2 (PromoCell, cat. C-28009), respectively. For all experiments, HUVEC and hMSC were used at passages </=5.
[…]

[1] = second compound 0.1 µM, first compound 0.0316 µM
[2] = second compound 0.1 µM, first compound 0.1 µM
[3] = second compound 0.1 µM, first compound 0.316 µM
[4] = second compound 0.1 µM, first compound 1 µM
[5] = second compound 0.1 µM, first compound 3.16 µM
[6] = second compound 0.1 µM, first compound 10 µM
[7] = second compound 0.316 µM, first compound 0.0316 µM
[8] = second compound 0.316 µM, first compound 0.1 µM
[9] = second compound 0.316 µM, first compound 0.316 µM
[10] = second compound 0.316 µM, first compound 1 µM
[11] = second compound 0.316 µM, first compound 3.16 µM
[12] = second compound 0.316 µM, first compound 10 µM
[13] = second compound 1 µM, first compound 0.0316 µM
[14] = second compound 1 µM, first compound 0.1 µM
[15] = second compound 1 µM, first compound 0.316 µM
[16] = second compound 1 µM, first compound 1 µM
[17] = second compound 1 µM, first compound 3.16 µM
[18] = second compound 1 µM, first compound 10 µM
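Further: spheroids exposed to compounds for seven days.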
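Wherever viability, T/C is given: 100% = DMSO vehicle control viability.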

Structure (SMILES): C=CC(=O)N1CCN(c2nc(=O)n(-c3c(C)ccnc3C(C)C)c3nc(-c4c(O)cccc4F)c(F)cc23)C(C)C1 (stereo not given) + CCN1CCN(Cc2ccc(Nc3ncc(F)c(-c4cc(F)c5nc(C)n(C(C)C)c5c4)n3)nc2)CC1
- pIC50 (second compound 0.01 µM): < 5.00
- pIC50 (second compound 0.0316 µM): < 5.00
- pIC50 (second compound 0.1 µM): < 5.00
- pIC50 (second compound 0.316 µM): < 5.00
- pIC50 (second compound 1 µM): < 5.00
- viability, T/C (second compound 0.01 µM, first compound 0.0316 µM): 107%
- viability, T/C (second compound 0.01 µM, first compound 0.1 µM): 107%
- viability, T/C (second compound 0.01 µM, first compound 0.316 µM): 121%
- viability, T/C (second compound 0.01 µM, first compound 1 µM): 121%
- viability, T/C (second compound 0.01 µM, first compound 3.16 µM): 143%
- viability, T/C (second compound 0.01 µM, first compound 10 µM): 176%
- viability, T/C (second compound 0.0316 µM, first compound 0.0316 µM): 98.7%
- viability, T/C (second compound 0.0316 µM, first compound 0.1 µM): 95.7%
- viability, T/C (second compound 0.0316 µM, first compound 0.316 µM): 90.7%
- viability, T/C (second compound 0.0316 µM, first compound 1 µM): 116%
- viability, T/C (second compound 0.0316 µM, first compound 3.16 µM): 125%
- viability, T/C (second compound 0.0316 µM, first compound 10 µM): 186%
- viability, T/C [1]: 83.7%
- viability, T/C [2]: 90.6%
- viability, T/C [3]: 104%
- viability, T/C [4]: 119%
- viability, T/C [5]: 139%
- viability, T/C [6]: 218%
- viability, T/C [7]: 94.8%
- viability, T/C [8]: 94.3%
- viability, T/C [9]: 92.8%
- viability, T/C [10]: 105%
- viability, T/C [11]: 144%
- viability, T/C [12]: 229%
- viability, T/C [13]: 104%
- viability, T/C [14]: 96.8%
- viability, T/C [15]: 111%
- viability, T/C [16]: 118%
- viability, T/C [17]: 135%
- viability, T/C [18]: 282%

Structure (SMILES): Cn1ncc(Cl)c1-c1cc(C(=O)NC(CN)Cc2cccc(F)c2)sc1Cl (stereo not given) + CC(C)NCC(C(=O)N1CCN(c2ncnc3c2C(C)CC3O)CC1)c1ccc(Cl)cc1
- pIC50 (second compound 0.1 µM): 5.52
- pIC50 (second compound 0.316 µM): 5.42
- pIC50 (second compound 1 µM): 5.48
- pIC50 (second compound 3.16 µM): 5.47
- pIC50 (second compound 10 µM): 6.16
- viability, T/C [1]: 89.4%
- viability, T/C [2]: 83%
- viability, T/C [3]: 75.9%
- viability, T/C [4]: 61.4%
- viability, T/C [5]: 57.4%
- viability, T/C [6]: 0.26%
- viability, T/C [7]: 80.7%
- viability, T/C [8]: 67.3%
- viability, T/C [9]: 74.2%
- viability, T/C [10]: 64.8%
- viability, T/C [11]: 61.5%
- viability, T/C [12]: 0.25%
- viability, T/C [13]: 71.7%
- viability, T/C [14]: 73.1%
- viability, T/C [15]: 75.7%
- viability, T/C [16]: 55.7%
- viability, T/C [17]: 56.8%
- viability, T/C [18]: 0.23%
- viability, T/C (second compound 3.16 µM, first compound 0.0316 µM): 60.5%
- viability, T/C (second compound 3.16 µM, first compound 0.1 µM): 62%
- viability, T/C (second compound 3.16 µM, first compound 0.316 µM): 55.9%
- viability, T/C (second compound 3.16 µM, first compound 1 µM): 58%
- viability, T/C (second compound 3.16 µM, first compound 3.16 µM): 53.6%
- viability, T/C (second compound 3.16 µM, first compound 10 µM): 0.23%
- viability, T/C (second compound 10 µM, first compound 0.0316 µM): 53.1%
- viability, T/C (second compound 10 µM, first compound 0.1 µM): 45.6%
- viability, T/C (second compound 10 µM, first compound 0.316 µM): 51.8%
- viability, T/C (second compound 10 µM, first compound 1 µM): 50.8%
- viability, T/C (second compound 10 µM, first compound 3.16 µM): 44.6%
- viability, T/C (second compound 10 µM, first compound 10 µM): 0.3%
